The results in this text go back to US10167279B2 (NOVARTIS AG, priority 2014, dated 2019).

Chain of C-Raf FL (P04049 whole entry Y340E/Y341E): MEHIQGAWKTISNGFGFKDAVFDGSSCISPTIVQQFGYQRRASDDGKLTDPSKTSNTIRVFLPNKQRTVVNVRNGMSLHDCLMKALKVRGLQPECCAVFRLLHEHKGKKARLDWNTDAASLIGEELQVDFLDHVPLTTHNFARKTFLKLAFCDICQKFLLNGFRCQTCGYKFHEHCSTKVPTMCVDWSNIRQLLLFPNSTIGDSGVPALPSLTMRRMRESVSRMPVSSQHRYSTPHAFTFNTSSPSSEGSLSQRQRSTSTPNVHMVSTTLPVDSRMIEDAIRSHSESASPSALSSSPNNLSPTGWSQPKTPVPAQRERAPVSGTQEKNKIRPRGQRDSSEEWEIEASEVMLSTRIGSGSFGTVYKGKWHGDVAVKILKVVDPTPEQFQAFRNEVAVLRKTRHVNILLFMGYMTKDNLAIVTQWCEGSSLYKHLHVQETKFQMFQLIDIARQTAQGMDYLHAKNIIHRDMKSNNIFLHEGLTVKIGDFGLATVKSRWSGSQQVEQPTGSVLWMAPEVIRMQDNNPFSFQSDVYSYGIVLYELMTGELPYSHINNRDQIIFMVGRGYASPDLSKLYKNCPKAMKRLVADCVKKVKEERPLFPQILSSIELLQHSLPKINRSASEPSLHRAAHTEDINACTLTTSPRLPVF
Chain of C-Raf FL (P63104 whole entry partner): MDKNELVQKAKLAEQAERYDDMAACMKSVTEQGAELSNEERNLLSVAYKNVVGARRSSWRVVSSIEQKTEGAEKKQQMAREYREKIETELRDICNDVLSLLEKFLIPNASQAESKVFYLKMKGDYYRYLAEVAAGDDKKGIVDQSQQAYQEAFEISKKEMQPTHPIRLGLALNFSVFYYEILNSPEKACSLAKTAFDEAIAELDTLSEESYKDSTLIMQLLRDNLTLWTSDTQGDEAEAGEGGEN

The experiment concerns the target C-Raf FL (Homo sapiens (Human), UniProt P04049, Y340E/Y341E). Briefly: In vitro Raf activity determination (Alpha Screen, phospho-MEK), C-Raf FL (full length, Y340E/Y341E). As to conditions: ATP 1 μM; 60 min pre-incubation; 1 hour reaction; column head does not say FL or TR. The format is biochemical. A digest of the protocol:
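Read-out is AlphaScreen luminescence using rabbit anti-p-MEK with protein A beads after EDTA stop, with IC50 fitted by non-linear regression. Reaction: Sf9-derived C-Raf plus biotinylated E. coli MEK1 K97R substrate, pH 7.5 Tris/MgCl2/DTT buffer, compound preincubated 60 min at room temperature.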
What is called IC50 is the midpoint of a concentration-inhibition curve. High values mean weaker potency in that assay, low ones greater potency in that assay. `CCOc1nnc(-c2cc(NC(=O)c3ccc4c(c3)CNC4)ccc2C)cc1C1CCOCC1` [Example 285, N-(3-(6-ethoxy-5-(tetrahydro-2H-pyran-4-yl)pyridazin-3-yl)-4-methylphenyl) isoindoline-5-carboxamid] returned an IC50 of 0.9 nM.

With `Cc1ccc(NC(=O)c2ccnc(C3(C(F)(F)F)CC3)c2)cc1-c1cc(OC[C@H](O)CO)nc(C2CCOCC2)c1` [Example 275, (R)-N-(3-(2-(2,3-dihydroxypropoxy)-6-(tetrahydro-2H-pyran-4-yl)pyridin-4-yl)-4-methylphenyl)-2-(1-(trifluoromethyl)cyclopropyl) isonicotinamide], the IC50 was 0.2 nM.

Take `Cc1ccc(NC(=O)c2ccnc(C(F)(F)F)c2)cc1-c1cc(NCCO)nc(C2(O)CCOCC2)c1` [Example 287, N-(3-(2-((2-hydroxyethyl)amino)-6-(4-hydroxytetrahydro-2H-pyran-4-yl)pyridin-4-yl)-4-methylphenyl)-2-(trifluoromethyl)isonicotinamide]: half-maximal inhibition (IC50) was put at 0.393 nM. Against the preceding compound, the IC50 is about 2-fold higher.

`Cc1ncc(NC(=O)c2cccc(C(F)(F)F)c2)cc1-c1cc(C2(C)COC2)c(=O)[nH]n1` [Example 15, N-(6-methyl-5-(5-(3-methyloxetan-3-yl)-6-oxo-1,6-dihydropyridazin-3-yl)pyridin-3-yl)-3-(trifluoromethyl)benzamide] gave an IC50 of 1 nM.

Turning to `CCOc1ncc(-c2cc(NC(=O)c3ccnc(C(C)(C)F)c3)cnc2C)cc1C1(C)COC1` [Example 3, N-(6′-ethoxy-2-methyl-5′-(3-methyloxetan-3-yl)-[3,3′-bipyridin]-5-yl)-2-(2-fluoropropan-2-yl)isonicotinamide], the midpoint of inhibition, the IC50, lay at 0.5 nM. This IC50 is about 2-fold lower than that of the compound before.

`CCOc1nnc(-c2cc(NC(=O)c3ccnc(C(C)(C)F)c3)ccc2C)cc1C1CCOCC1` [Example 238, N-(3-(6-ethoxy-5-(tetrahydro-2H-pyran-4-yl)pyridazin-3-yl)-4-methylphenyl)-2-(2-fluoropropan-2-yl) isonicotinamide] gave an IC50 of 0.07 nM. This IC50 lies about 7.1-fold lower than the previous one.

In turn, `CCOc1ncc(-c2cc(NC(=O)c3ccnc(C(C)(C)F)c3)cnc2C)cc1C1(CF)CCOC1` (centres unmarked) [Example 165, N-(6′-ethoxy-5′-(3-(fluoromethyl)tetrahydrofuran-3-yl)-2-methyl-[3,3′-bipyridin]-5-yl)-2-(2-fluoropropan-2-yl)isonicotinamide] showed an IC50 of 1 nM.

Consider `Cc1ncc(NC(=O)c2ccnc(C(F)(F)F)c2)cc1-c1cc(NCCO)nc(C2CCOCC2)c1` [Example 181, N-(2′-((2-hydroxyethyl)amino)-2-methyl-6′-(tetrahydro-2H-pyran-4-yl)-[3,4′-bipyridin]-5-yl)-2-(trifluoromethyl) isonicotinamide], for which the IC50 is 0.393 nM.

`Cc1ccc(NC(=O)c2cc(C(C)(C)C)nc(O)n2)cc1-c1cc(OCCO)nc(C2CCOCC2)c1` [Example 256, 6-(tert-butyl)-2-hydroxy-N-(3-(2-(2-hydroxyethoxy)-6-(tetrahydro-2H-pyran-4-yl)pyridin-4-yl)-4-methylphenyl)pyrimidine-4-carboxamide] registered an IC50 of 0.1 nM. This IC50 is about 3.9-fold lower than that of the compound before.

`CCOc1nnc(-c2cc(NC(=O)c3cnc(C(F)(F)F)cn3)ccc2C)cc1C1CCOCC1` [Example 230, N-(3-(6-ethoxy-5-(tetrahydro-2H-pyran-4-yl)pyridazin-3-yl)-4-methylphenyl)-5-(trifluoromethyl) pyrazine-2-carboxamide] yielded an IC50 of 11 nM.

Consider `CCOc1nnc(-c2cc(NC(=O)c3ccnc(C4(C(F)(F)F)CC4)c3)ccc2C)cc1C1CCOCC1` [Example 227, N-(3-(6-ethoxy-5-(tetrahydro-2H-pyran-4-yl)pyridazin-3-yl)-4-methylphenyl)-2-(1-(trifluoromethyl)cyclopropyl) isonicotinamide], for which the IC50 came to 0.2 nM.

`Cc1ccc(NC(=O)c2cc(C(F)(F)F)ccn2)cc1-c1cc(OC[C@H](O)CO)nc(C2CCOCC2)c1` [Example 283, (R)-N-(3-(2-(2,3-dihydroxypropoxy)-6-(tetrahydro-2H-pyran-4-yl)pyridin-4-yl)-4-methylphenyl)-4-(trifluoromethyl) picolinamide]: the IC50 stood at 0.07 nM. This IC50 lies about 2.9-fold lower than the previous one.

In the case of `CCOc1nnc(-c2cc(NC(=O)c3cc(C(F)(F)F)cnn3)ccc2C)cc1C1CCOCC1` [Example 240, N-(3-(6-ethoxy-5-(tetrahydro-2H-pyran-4-yl)pyridazin-3-yl)-4-methylphenyl)-5-(trifluoromethyl) pyridazine-3-carboxamide], the IC50 is 0.04 nM.

For the compound `Cc1ccc(NC(=O)c2ccnc(C(F)(F)F)c2)cc1-c1cc(OCCO)nc(C2(C(F)F)COC2)c1` [Example 58, N-(3-(2-(3-(difluoromethyl)oxetan-3-yl)-6-(2-hydroxyethoxy)pyridin-4-yl)-4-methylphenyl)-2-(trifluoromethyl)isonicotin-amide], the IC50 amounted to 0.0155 nM.

In turn, `Cc1ccc(NC(=O)c2cc(C(F)(F)F)ccn2)cc1-c1cc2c(c(C3CCOCC3)c1)OC(C)(CO)C(=O)N2` (centres unmarked) [Example 202, N-(3-(2-(hydroxymethyl)-2-methyl-3-oxo-8-(tetrahydro-2H-pyran-4-yl)-3,4-dihydro-2H-benzo[b][1,4]oxazin-6-yl)-4-methylphenyl)-4-(trifluoromethyl) picolinamide] gave an IC50 of 0.3 nM.

`Cc1ccc(NC(=O)c2ccnc(C(F)(F)F)c2)cc1-c1cc(C2CCOCC2)c(N[C@@H](C)CO)nn1` [Example 309, (S)-N-(3-(6-((1-hydroxypropan-2-yl)amino)-5-(tetrahydro-2H-pyran-4-yl)pyridazin-3-yl)-4-methylphenyl)-2-(trifluoromethyl) isonicotinamide] returned an IC50 of 0.02 nM. Against the preceding compound, the IC50 is about 15-fold lower.

`Cc1ccc(NC(=O)c2cccc(C(F)(F)F)c2)cc1-c1cc(C2(O)COC2)cc(C2(F)COC2)c1` [Example 134, N-(3′-(3-fluorooxetan-3-yl)-5′-(3-hydroxyoxetan-3-yl)-6-methyl-[1,1′-biphenyl]-3-yl)-3-(trifluoromethyl)benzamide]: inhibition was half-maximal at 0.566 nM (IC50).

In turn, `COc1ncc(-c2cc(NC(=O)c3cc(C(F)(F)F)cc(C(C)(C)N)n3)ccc2C)cc1C1(C(F)F)COC1` [Example 149, 6-(2-aminopropan-2-yl)-N-(3-(5-(3-(difluoromethyl)oxetan-3-yl)-6-methoxypyridin-3-yl)-4-methylphenyl)-4-(trifluoromethyl)picolin-amide] registered an IC50 of 0.871 nM.

`Cc1ccc(NC(=O)c2ccnc(C(F)(F)F)c2)cc1-c1cc(C2(F)COC2)cc(OCCO)n1` [Example 47, N-(3-(4-(3-fluorooxetan-3-yl)-6-(2-hydroxyethoxy)pyridin-2-yl)-4-methylphenyl)-2-(trifluoromethyl)isonicotin-amide]: inhibition was half-maximal at 4.35 nM (IC50). This IC50 lies about 5-fold higher than the previous one.

For `CCOc1ncc(-c2cc(NC(=O)c3cccc(C(F)(F)F)c3)cnc2C)cc1C1(O)CCOC1` (centres unmarked) [Example 294, N-(6′-ethoxy-5′-(3-hydroxytetrahydro-furan-3-yl)-2-methyl-[3,3′-bipyridin]-5-yl)-3-(trifluoromethyl) benzamide], the IC50 amounted to 2 nM.

As for `Cc1nc2cc(C3CCOCC3)cc(-c3cc(NC(=O)c4cc(C(F)(F)F)ccn4)ccc3C)c2[nH]1` [Example 224, N-(4-methyl-3-(2-methyl-5-(tetrahydro-2H-pyran-4-yl)-1H-benzo[d]imidazol-7-yl)penyl)-4-(trifluoromethyl) picolinamide], the IC50 turned out to be 5 nM.

Take `Cc1ccc(NC(=O)c2cc(C(F)(F)F)cnn2)cc1-c1cc2c(c(C3CCOCC3)c1)NC(=O)C(C)(CO)O2` (centres unmarked) [Example 195, N-(3-(2-(hydroxymethyl)-2-methyl-3-oxo-5-(tetrahydro-2H-pyran-4-yl)-3,4-dihydro-2H-benzo [b][1,4]oxazin-7-yl)-4-methylphenyl)-5-(trifluoromethyl) pyridazine-3-carboxamide]: the IC50 was 0.03 nM.

As for `Cc1ccc(NC(=O)c2ccnc(C(C)(F)F)c2)cc1-c1cc(C2CCOCC2)nc(N(CCO)CCO)c1` [Example 177, N-(3-(2-(bis(2-hydroxyethyl)amino)-6-(tetrahydro-2H-pyran-4-yl)pyridin-4-yl)-4-methylphenyl)-2-(1,1-difluoroethyl) isonicotinamide], it took 0.621 nM to reach half-maximal inhibition (IC50). Against the preceding compound, the IC50 is about 21-fold higher.

In the case of `COC1(c2cc(-c3cc(NC(=O)c4ccnc(C(F)(F)F)c4)ccc3C)cnc2OCCO)COC1` [Example 59, N-(3-(6-(2-hydroxyethoxy)-5-(3-methoxyoxetan-3-yl)pyridin-3-yl)-4-methylphenyl)-2-(trifluoromethyl)isonicotin-amide], the IC50 came out at 0.103 nM.

Regarding `CCOc1nnc(-c2cc(NC(=O)c3cccc(C(F)(F)F)c3)cnc2C)cc1C1CCOCC1` [Example 234, N-(5-(6-ethoxy-5-(tetrahydro-2H-pyran-4-yl)pyridazin-3-yl)-6-methylpyridin-3-yl)-3-(trifluoromethyl) benzamide], inhibition was half-maximal at 0.08 nM (IC50).

As for `Cc1ccc(NC(=O)c2ccnc(C(C)(F)F)c2)cc1-c1cc(OCCO)nc(C2(CF)CCOCC2)c1` [Example 211, 2-(1,1-difluoroethyl)-N-(3-(2-(4-(fluoromethyl)tetrahydro-2H-pyran-4-yl)-6-(2-hydroxyethoxy)pyridin-4-yl)-4-methylphenyl) isonicotinamide], half-maximal inhibition (IC50) required 0.3 nM.

For the compound `Cc1ncc(NC(=O)c2ccc(CN)c(C(F)(F)F)c2)cc1-c1cccc(C2(C)COC2)c1` [Example 8], half-maximal inhibition (IC50) was put at 1 nM. Compared with the last compound, the IC50 is about 3.3-fold higher.

For `Cc1ccc(NC(=O)c2ccnc(C(F)(F)F)c2)cc1-c1cc(OCCO)nc(C2CCOCC2O)c1` (centres unmarked) [Example 162, N-(3-(2-(2-hydroxyethoxy)-6-(3-hydroxytetrahydro-2H-pyran-4-yl)pyridin-4-yl)-4-methylphenyl)-2-(trifluoromethyl)isonicotinamide], the IC50 was 1 nM.

For `Cc1ccc(NC(=O)c2ccnc(C(F)(F)F)n2)cc1-c1cc(OCCO)nc(C2CCOCC2)c1` [Example 254, N-(3-(2-(2-hydroxyethoxy)-6-(terahydro-2H-pyran-4-yl)pyridin-4-yl)-4-methylphenyl)-2-(trifluoromethyl) pyrimidine-4-carboxamide], the midpoint of inhibition, the IC50, lay at 0.3 nM. This IC50 lies about 3.3-fold lower than the previous one.
